The text below walks through data of ChEMBL document CHEMBL4033724, “Novel sulfonamide-containing 2-indolinones that selectively inhibit tumor-associated alpha carbonic anhydrases” (Bioorg Med Chem, 2017).

For one assay, the target named is Carbonic anhydrase 9 (Homo sapiens, UniProt Q16790). The assay is described as follows: Inhibition of recombinant human membrane bound carbonic anhydrase 9 expressed in Escherichia coli pretreated for 15 mins prior to testing by stopped-flow assay.
For a further assay, the target named is Carbonic anhydrase 2 (Homo sapiens, UniProt P00918). The assay is described as follows: Inhibition of recombinant human cytosolic carbonic anhydrase 2 expressed in Escherichia coli pretreated for 15 mins prior to testing by stopped-flow assay.
The target in the next assay is Carbonic anhydrase 1 (Homo sapiens, UniProt P00915). Put plainly: Inhibition of recombinant human cytosolic carbonic anhydrase 1 expressed in Escherichia coli pretreated for 15 mins prior to testing by stopped-flow assay.
Carbonic anhydrase 1, sequence (P00915 whole entry): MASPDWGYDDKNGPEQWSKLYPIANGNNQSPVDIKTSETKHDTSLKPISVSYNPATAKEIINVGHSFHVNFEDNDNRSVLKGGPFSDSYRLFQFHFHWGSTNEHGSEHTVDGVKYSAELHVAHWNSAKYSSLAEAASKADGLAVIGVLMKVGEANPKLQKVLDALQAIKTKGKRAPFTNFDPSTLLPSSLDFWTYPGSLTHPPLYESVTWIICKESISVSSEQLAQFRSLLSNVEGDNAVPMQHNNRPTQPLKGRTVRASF
The target in the next assay is Carbonic anhydrase 12 (Homo sapiens, UniProt O43570). Put plainly: Inhibition of recombinant human […] expressed in Escherichia coli pretreated for 15 mins prior to testing by stopped-flow assay.
Carbonic anhydrase 12, sequence (O43570 whole entry): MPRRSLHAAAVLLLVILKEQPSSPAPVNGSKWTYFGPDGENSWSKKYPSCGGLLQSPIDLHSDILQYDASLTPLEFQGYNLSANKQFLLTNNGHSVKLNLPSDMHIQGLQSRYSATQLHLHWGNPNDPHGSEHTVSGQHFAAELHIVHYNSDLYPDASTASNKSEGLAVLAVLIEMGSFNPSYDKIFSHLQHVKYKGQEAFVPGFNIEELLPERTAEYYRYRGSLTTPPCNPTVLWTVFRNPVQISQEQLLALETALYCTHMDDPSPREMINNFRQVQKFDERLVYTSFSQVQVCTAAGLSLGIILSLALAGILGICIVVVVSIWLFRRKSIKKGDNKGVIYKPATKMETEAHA

Each structure is given as a SMILES string.

For `NS(=O)(=O)c1ccc(NC(=S)N/N=C2\C(=O)Nc3ccc(Cl)cc32)cc1`, the Ki was 54.2 nM at Carbonic anhydrase 9, 616 nM at Carbonic anhydrase 2, 650 nM at Carbonic anhydrase 1 and 5.8 nM on Carbonic anhydrase 12.
`NS(=O)(=O)c1ccc(NC(=S)N/N=C2\C(=O)Nc3c(Br)cc(Br)cc32)cc1`: the inhibitory constant (Ki) on Carbonic anhydrase 9 was determined as 58.1 nM; at Carbonic anhydrase 2, 687 nM; at Carbonic anhydrase 1, 698 nM; on Carbonic anhydrase 12, 6.3 nM.
For `NS(=O)(=O)c1ccc(NC(=S)N/N=C2\C(=O)Nc3ccc(I)cc32)cc1`, the Ki on Carbonic anhydrase 9 amounted to 16.8 nM; at Carbonic anhydrase 2, 399 nM; at Carbonic anhydrase 1, 624 nM; on Carbonic anhydrase 12 it was 5.9 nM.
With `Cc1ccc2c(c1)/C(=N/NC(=S)Nc1ccc(S(N)(=O)=O)cc1)C(=O)N2`, the Ki at Carbonic anhydrase 9 was 62.3 nM; at Carbonic anhydrase 2, 735 nM; at Carbonic anhydrase 1 it was 744 nM; on Carbonic anhydrase 12, 5.7 nM.
On to `NS(=O)(=O)c1ccc(NC(=S)N/N=C2\C(=O)Nc3c(Cl)cccc32)cc1`, for which the Ki on Carbonic anhydrase 9 amounted to 13.3 nM; on Carbonic anhydrase 2 it was 426 nM; at Carbonic anhydrase 1 it was 76.1 nM; at Carbonic anhydrase 12 it was 87.3 nM.
On to `NS(=O)(=O)c1ccc(NC(=S)N/N=C2\C(=O)Nc3ccc(S(=O)(=O)O)cc32)cc1`, for which the Ki on Carbonic anhydrase 9 was found to be 34.4 nM; on Carbonic anhydrase 2 it was 897 nM; at Carbonic anhydrase 1 it was 901 nM; on Carbonic anhydrase 12, 1.2 nM.
For `NS(=O)(=O)c1ccc(NC(=S)N/N=C2\C(=O)Nc3ccc(F)cc32)cc1`, the Ki on Carbonic anhydrase 9 came out at 38.8 nM; on Carbonic anhydrase 2, 551 nM; at Carbonic anhydrase 1, 558 nM; on Carbonic anhydrase 12, 4.5 nM.
For `NS(=O)(=O)c1ccc(NC(=S)N/N=C2\C(=O)Nc3ccc(Br)cc32)cc1`, the inhibition constant (Ki) on Carbonic anhydrase 9 came to 64.8 nM; at Carbonic anhydrase 2, 851 nM; on Carbonic anhydrase 1 it was 882 nM; on Carbonic anhydrase 12 it was 6.1 nM.
As to `NS(=O)(=O)c1ccc(NC(=S)N/N=C2\C(=O)Nc3ccccc32)cc1`, the inhibitory constant (Ki) came to 66.3 nM at Carbonic anhydrase 9, 936 nM on Carbonic anhydrase 2, 1190 nM at Carbonic anhydrase 1 and 6.9 nM on Carbonic anhydrase 12.
Consider `NS(=O)(=O)c1ccc(NC(=S)N/N=C2\C(=O)Nc3c(Cl)cc(Cl)cc32)cc1`, for which the Ki on Carbonic anhydrase 9 worked out at 21.3 nM; on Carbonic anhydrase 2, 782 nM; at Carbonic anhydrase 1, 554 nM; at Carbonic anhydrase 12, 82.3 nM.
As to `NS(=O)(=O)c1ccc(NC(=S)N/N=C2\C(=O)Nc3ccc([N+](=O)[O-])cc32)cc1`, the Ki at Carbonic anhydrase 9 was 19.5 nM; on Carbonic anhydrase 2, 32 nM; on Carbonic anhydrase 1, 68.8 nM; on Carbonic anhydrase 12, 4.1 nM.
For `NS(=O)(=O)c1ccc(NC(=S)N/N=C2\C(=O)Nc3ccc(OC(F)(F)F)cc32)cc1`, in that order: 45.7 nM, 420 nM, 481 nM and 6 nM.
For the compound `NS(=O)(=O)c1ccc(NC(=S)N/N=C2\C(=O)Nc3c(F)cccc32)cc1`, the inhibitory constant (Ki) at Carbonic anhydrase 9 amounted to 20.8 nM; on Carbonic anhydrase 2, 26.9 nM; at Carbonic anhydrase 1 it was 57.6 nM; at Carbonic anhydrase 12 it was 45.5 nM.
